Measured values: patent US10894037B2, “Inhibitors of bacterial two component signal transduction system and uses thereof” (priority 2017, dated 2021)

Key:
Format in all cases: binding
[1] = molecular target: T1, PmrAC (C-terminal domain of PmrA) (Klebsiella pneumoniae, UniProt W9BNR5); test: NMR (2D 1H-15N TROSY-HSQC) compound titration for dissociation constant
T1 sequence (W9BNR5 121-223): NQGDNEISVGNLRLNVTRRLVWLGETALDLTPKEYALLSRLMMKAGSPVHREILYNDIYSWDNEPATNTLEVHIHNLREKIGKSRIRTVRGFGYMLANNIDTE
Protocol: NMR Spectroscopy and Compound Titrations
The preparations of NMR samples were as described previously (Mscielag and Goldschmidt, Expert opinion on investigational drugs 2000, 9, 2351-2369.). Briefly, the activated and inactivated PmrA (0.3 ml, 0.25 mM) were prepared in pH8.0 buffer (20 mM Tris and 100 mM NaCl) with or without BeF3^− activation. PmrAC (0.3 ml, 0.25 mM) was prepared in pH8.0 buffer (20 mM Tris and 100 mM NaCl). All the protein solutions were further loaded in Shigemi NMR tubes (Shigemi Inc.). NMR experiments for activated/inactivated PmrA and PmrAC were conducted at 310 and 298K on Brucker AVANCE 600 or 800 NMR spectrometers (Bruker, Karlsruhe, Germany) equipped with a triple-resonance cryoprobe including a shielded z-gradient. The hetero-nuclear NMR experiments for backbone assignments were performed as described previously in a review article (Garcia-Calderon et al., Journal of Bacteriology 2007, 189, 6635-6644). All the acquired NMR spectra were processed by using NMRPipe (Chen and Groisman, Annual review of microbiology 2013, 67, 83-112) and analyzed with NMRViewJ8.0a.22 (Wosten et al., Molecular microbiology 2006, 60, 39-50). […] The chemical shift changes were calculated through the equation Δδ=[(ΔδNH)^2+(0.17×ΔδN)^2]^0.5, in which ΔδNH and ΔδN are the chemical shift differences for ^1HN and ^15N, respectively. […]

[2] = molecular target: T1, PmrAC (C-terminal domain of PmrA); test: Isothermal titration calorimetry (ITC)
Protocol: Isothermal Titration Calorimetry (ITC)
The binding affinities of PmrAC with compound, E1, was estimated by ITC using a MicroCal iTC200 microcalorimeter. The sample of PmrAC was prepared in reaction buffer (20 mM sodium phosphate, 100 mM NaCl, pH6.0). Compounds were also prepared in reaction buffer (E1=0.4 mM) and titrated into PmrAC (45 μM) at 25° C. The background heat generated from compound to buffer titration was subtracted, and the corrected heat form the binding reaction of PmrAC to E1 was used to derive the association constant (Ka), the enthalpy of binding (ΔH), the change in Gibbs free energy (ΔG), and the entropy changes ([…]) at 298K. All the data were analyzed by using Origin ITC Analysis (MicroCal Software, Northampton, Mass., USA).
(§1) The binding affinity of E1 toward PmrAC (C-terminal domain of PmrA) was further assessed by Isothermal titration calorimetry (ITC) and Bio-layer interferometer (BLI) at the condition described previously (Lou et al., Nature communication 2015, 6, 8838.) (sodium phosphate buffer pH6.0). According to the ITC results, the interaction of E1 with PmrAC appeared to be an exothermic reaction, with a change in enthalpy (ΔH) of −21.4 kcal/mol, change in entropy (AS) of −45.6 […], and N value of 1.09 (FIG. 2, panel G).

PmrA-DNA complex [3] = molecular target: PmrA-DNA complex (Klebsiella pneumoniae, UniProt W9BNR5); test: Fluorescence polarization (FP) assay of inhibition of PmrA-DNA complex formation
Sequence of PmrA-DNA complex (Klebsiella pneumoniae, UniProt W9BNR5) (W9BNR5 whole entry I220D/W181G, one chain of several): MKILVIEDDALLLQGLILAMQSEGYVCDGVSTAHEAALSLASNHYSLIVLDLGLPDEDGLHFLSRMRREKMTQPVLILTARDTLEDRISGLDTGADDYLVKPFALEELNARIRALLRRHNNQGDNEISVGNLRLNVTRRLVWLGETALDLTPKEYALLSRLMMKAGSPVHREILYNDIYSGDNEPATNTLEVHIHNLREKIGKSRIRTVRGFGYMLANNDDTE
Protocol: (§2) Fluorescence Polarization (FP) Measurements
(§3) Compounds, E1-E5, were purchased from InterBioScreen (Moscow, Russia) (E1: STOCK1S-95047; E2: STOCK1N-13224; E3: STOCK1N-16691; E4: STOCK 1 S-43938; E5: STOCK1S-55283), and the purity are over 90% examined by NMR. The oligonucleotides (5′-[…]-3′, SEQ ID NO: 2) labeled with 6-carboxyfluorescein (6-FAM) at the 5′-position, was dissolved in 10 mM sodium phosphate and 15 mM NaCl pH 7.0 for fluorescence polarization experiments. About 10 μl activated PmrA (prepared in 10 mM sodium phosphate and 15 mM NaCl at pH7.0) was first added into the well of ELISA plate. Then, 1 μl of serial diluted inhibitors, E1-E5, (prepared in the sample buffer of activated PmrA) were mixed with the PmrA (final concentration Of 30 μM) to reach the interested concentrations and incubated at 25° C. for 10 mins. Subsequently, 9 μl of 6-FAM-labeled DNA (final concentration of 10 nM) was added into the reaction, incubating at 25° C. for another 10 mins. Reactions were measured 3 times by use of a SpectraMax Paradigm plate reader (Molecular Devices, CA, USA) with excitation wavelength 485 nm and emission wavelength 535 nm. The inhibition % was derived according to the following equation:
(§4) [formula] in which (D), (P+D), and (P+I+D) are the polarization intensity of DNA alone, PmrA with DNA, and PmrA mixed with inhibitor then incubated with DNA, respectively.
(§5) Fluorescence polarization (FP) was first employed to access the inhibitory abilities of E1-E5 against the formation of PmrA-DNA complex in accordance with procedures described in the section of “Materials and Methods.” Results are depicted in FIG. 1, panels E and F, and Table 1.

PmrA-DNA complex [4] = molecular target: PmrA-DNA complex (Klebsiella pneumoniae, UniProt W9BNR5, I220D/W181G); test: as above; conditions: read-out: inhibition of PmrA binding to DNA (PmrA-DNA complex formation)
Sequence of PmrA-DNA complex (Klebsiella pneumoniae, UniProt W9BNR5, I220D/W181G) (W9BNR5 whole entry I220D/W181G, one chain of several): as above
Protocol: as §2, §3, §4, §5

[5] = molecular target: T1, PmrAC (C-terminal domain of PmrA); test: Bio-layer interferometry (BLI)
Protocol: Bio-Layer Interferometry (BLI)
The BLI kinetics were obtained by using the ForteBio Octet RED96 instrument (ForteBio, Pall Life Sciences). Recombinant PmrAC carrying C-terminal 6× His tag was immobilized on the HIS1K biosensor in the reaction buffer containing 20 mM sodium phosphate, 100 mM NaCl, pH 6.0 at 25° C. for 180 s prior to kinetic experiment. For the association, the preloading biosensor was exposed to different concentration of E1 (0-37.5 μM) for the period of 300 s. Following the dissociation step, the sensor was subjected to the reaction buffer for 300 s. Kinetic constants, including Kon (association constant, M^−1s^−1) and Koff (dissociation constant, s^−1), were obtained by fitting the reaction model 1:1 kinetics to the reference-subtracted data. The equilibrium dissociation (KD) was calculated as the ratio of Koff to Kon. All calculation was determined using Data Analysis 7 software (ForteBio, Pall Life Sciences).
as §1

Structure (SMILES)	Kd [1]	Kd [2]	IC50 (PmrA-DNA complex [3])	inhibition at 50 µM (PmrA-DNA complex [4])	Kd [5]	koff ([5]; read-out: Koff rate)	kon ([5]; read-out: Kon rate)
O=S(=O)(O)c1ccc(-c2ncc(-c3ccc(-c4cnc(-c5ccc(S(=O)(=O)O)cc5)o4)cc3)o2)cc1 [Compound E1]	126 ± 34.6 µM	1.7 µM	10.2 ± 2.6 µM	70.2 ± 3.2%	2.6 ± 0.1 µM	0.251 s⁻¹	94900 M⁻¹ s⁻¹
O=S(=O)(O)CCOCC1CSSCC(COCCS(=O)(=O)O)SS1 (centres unmarked) [Compound E2]			42.5 ± 2.9 µM	55.9 ± 2.7%			
O=S(=O)(O)CC1CSSCC(CS(=O)(=O)O)SS1 (centres unmarked) [Compound E3]			100 ± 2.5 µM	27.4 ± 1.8%			
